Here are results for three compounds from article PMC11588021, “Sequence-defined phosphoestamers for selective inhibition of the KRAS^G12D/RAF1 interaction” (Chemical Science, 2024).

For assay [1], the target named is T1, KRAS^WT-GMPPnP / RAF1-GFP interaction (Homo sapiens, UniProt P01116).
T1 construct: and KRas4B(1-169)[G12D], optimised for expression in E.coli; His6 (N); Avi tag (biotinylated with BirA) (N); TEV site (N); made in house; host or cells: E. coli BL21(DE3) Gold for KRAS; E. coli BL21(DE3) for RAF1-RBD-GFP
The assay is described as follows: KRAS^WT/RAF1-RBD interaction assay (same plate assay). The assay is classed as biochemical. The conditions noted are these: 'high' and 'low' concentrations, approximately IC50 ÷ 3 and IC50 × 3. The protocol: Since four phosphoestamers were determined to have consistent dissociation activity between KRAS^G12D-GMPPnP and RAF1-GFP, we then used the same assay to determine whether these molecules would have any activity against KRAS^WT-GMPPnP or whether they would be selective for the mutant form (Fig. 5e).
To the 96 well plate, 100 µL was added to each well containing 2 µg/mL KRASG12D-GMPPnP or KRASWT-GMPPnP in coating buffer (see buffers, page 3). The plate was shaken on a plate rotator at 300 rpm and left to incubate at 4 °C overnight. After incubation, the KRASG12D/WT solution was removed, and the plate was then washed with 100 µL per well of blocking buffer twice. 100 µL of blocking buffer was then added per well and the plate was incubated at 37 °C for one hour. […] The emission spectrum o f GFP (490 – 560 nm) was measured on the plate reader.
GraphPad Prism (9.5.1) was used to calculate the area under the curve (AUC) of the emission spectra between 490 and 540 nm. IC50 values were calculated on GraphPad Prism, using the non-linea r regression fit (Sigmoidal, 4PL, X is concentration) analysis.
To the well plate, 100 µL was added to each well containing 2 µg/mL of the 4:1 conjugate of KRASG12D-G M PP nP -streptavidin fluorescein in coating buffer. […] The emission spectrum of fluorescein (500 – 600 nm) was measured using the plate reader. […]

In assay [2] the target is T2, KRAS^G12D-GMPPnP / RAF1-RBD-GFP interaction (Homo sapiens, UniProt P01116, G12D).
T2 construct: and KRas4B(1-169)[G12D], optimised for expression in E.coli; His6 (N); Avi tag (biotinylated with BirA) (N); TEV site (N); made in house; host or cells: E. coli BL21(DE3) Gold for KRAS; E. coli BL21(DE3) for RAF1-RBD-GFP
Kind of assay: KRAS^G12D/RAF1-RBD interaction assay (plate coated with KRAS, RAF1-RBD-GFP fluorescence). The assay is classed as biochemical. The protocol: Phosphoestamers O1–O6 were resynthesised on a 1 μmol scale using the DNA synthesiser and the yields were determined by manually cleaving the final DMT protecting group of each molecule and quantifying the DMT cation by UV-visible spectroscopy (ESI Section 2.4 ^†). The achievement of desired length and purity was confirmed by polyacrylamide gel electrophoresis (Fig. 5a). The resynthesised phosphoestamers were purified away from smaller molecules using C18 spin tips. To ensure the assay was viable, a positive control Ch-3 (Fig. 5a) known to disrupt KRAS^G12D interactions[50] was synthesised. […] Any KRAS sites not blocked by the phosphoestamers would interact with the RAF1-GFP and result in a fluorescent signal which would be detected. In this assay, we first established that both KRAS^G12D-GMPPnP and RAF1-RBD-GFP were required to give a fluorescence signal.
To the 96 well plate, 100 µL was added to each well containing 2 µg/mL KRASG12D-GMPPnP or KRASWT-GMPPnP in coating buffer (see buffers, page 3). […] The emission spectrum o f GFP (490 – 560 nm) was measured on the plate reader.
GraphPad Prism (9.5.1) was used to calculate the area under the curve (AUC) of the emission spectra between 490 and 540 nm. IC50 values were calculated on GraphPad Prism, using the non-linea r regression fit (Sigmoidal, 4PL, X is concentration) analysis. […]

Assay [3] concerns KRAS^G12D (inactive GDP-form). Set-up: method as in PMID 34889605. The conditions noted are these: binds to the inactive GDP-form of the protein; cited from earlier work.

Values joined by “and” are separate entries in the source; they are usually repeats but may differ in a detail not shown here. Identical values can stand only once. “Also recorded” adds a separate entry of the source.

A word on the IC50: it is the concentration needed to halve the response being measured. With “NDI-C12-C12-C12-NDI-BPA [Phosphoestamer O2]”, in assay [1], the “Effect on KRAS^WT-GMPPnP/RAF1-GFP interaction” value is “only O5 caused a decrease in fluorescent signal; also recorded: inactive”. The IC50 in assay [2] (AUC of GFP emission 490-540 nm, three biological repeats (O4 n = 4)) is < 100 nM and 70.9 nM.

Turning to `C#Cc1c(F)ccc2cc(O)cc(-c3ncc4c(N5CC6CCC(C5)N6)nc(OC[C@@]56CCCN5C[C@H](F)C6)nc4c3F)c12` [MRTX1133], the IC50 in assay [3] was 5 nM.

Turning to `COc1cccc(-c2ccc(Nc3ccc(CN(C)C)cc3)c(OC)c2F)c1` [Ch-3, reference compound], in assay [2] (positive control, n = 3), the midpoint of inhibition, the IC50, lay at 6350 ± 200 nM.
